Drawing on a melting point compilation (Tetko et al.; mined from patent text by program, amines drawn as free bases though some values may be those of a salt), this text covers melting point for 65 compounds.

Consider `Cc1cccc2nc(-c3ccccc3)n(C3CCC(=O)NC3=O)c(=O)c12` (stereo not given), for which the melting point (in general, the temperature of the solid-liquid transition) lay in the range of 298 to 300 °C.
Compound `c1ccc(CC2CCN2C(c2ccccc2)c2ccccc2)cc1` (stereo not given) came in with a melting point of 87.5 °C.
As for `CS(=O)(=O)c1ccc(-c2cnn(-c3cccc(Cl)c3)c(=O)c2Oc2ccccc2)cc1`, the figure is 205 to 207 °C; as for `CN(C)C(=O)N(CCl)c1ccc(Cl)cc1`, 37 to 43 °C.
As for `Cn1nc(C(F)(F)F)cc1Oc1ccnc(-c2ccc(F)cc2)n1`, the figure is 101 to 102 °C.
Under `CCCCCCC[C@H](CC(=O)OC(C)(C)C)C(=O)N1C(=O)OC[C@@H]1C(C)C` stands 49 to 51 °C; under `C=CS(=O)(=O)CS(=O)(=O)C=C`, 59 to 61 °C; under `c1ccc(NN2Cc3ccccc3C2)nc1`, 130 to 131 °C.
Turning to `Cc1c(NC(=O)c2ccc(Oc3ccccc3)cc2)ccc2cc(CN3CCCC3)cnc12`, the melting point fell in the range of 161 to 162 °C.
`CC(C)(C)c1ccc2c(c1)C(COCc1ccccc1)([Si](C)(C)C)c1cc(C(C)(C)C)ccc1-2`: the melting point lay in the range of 100 to 102 °C.
As to `CCCc1c(O)ccc2c1OC(C)(CCC(N)=O)CC2=O` (stereo not given), the melting point is 108 to 115 °C.
For the compound `BrCCCCOc1ccc2c(ccn2-c2ccc(Br)cc2)c1`, the melting point lay in the range of 80 to 81 °C.
Under `COCCc1ccc(OCC(O)CNCCNC(=O)C2CCCOC2)cc1` (stereo not given) stands 107 to 108 °C; under `O=C1Nc2cc(-c3ccco3)ccc2C2CCCC12F` (stereo not given), 203 to 206 °C.
In turn, `Cc1ccc(C(=O)Nc2ccc(C(=O)CCC(=O)O)cc2)cc1` returned a melting point of 257 to 258 °C.
The compound `Cc1ccc(-c2ccc(CCCCC(=O)O)s2)cc1` gave a melting point of 124 to 127 °C.
Take `NCCCCn1cnc2c(N)nc3cccnc3c21`: the melting point was in the range of 161 to 163 °C.
`O=C(O)c1ccc(NCC2CCCCCCC2)cc1` showed a melting point of 160 to 162 °C.
As for `O=C1C(=Cc2ccncc2)c2ccccc2N1c1ccccc1`, the figure is 160 to 162 °C; as for `O=S(=O)(On1nnc2ccc(Cl)cc21)c1ccccc1`, 110 °C.
In the case of `O=S(=O)(CF)c1cccc(Br)c1Cl`, the melting point is 149 °C.
`Cc1cc(Nc2cccc(O)c2)c2c(cnn2C)n1` showed a melting point of 264 to 265 °C.
`CC(Oc1ccc2c(=O)c(-c3ccccc3)coc2c1)C(=O)O` (stereo not given) had a melting point of 201 to 202 °C.
Under `O=C(O)c1ncccc1OCc1ccc(Cl)cc1` stands 144 °C; under `O=C(c1ccc(I)cc1)c1ccc2c(c1)c(-c1cccc(Cl)c1)nc1nnnn12`, 175 °C; under `Cn1c(CC(=O)NO)ccc1C(=O)c1ccc(Cl)cc1`, 195 °C.
As for `Cc1c(C(F)(F)F)ncn(-c2c(Cl)cc(C(F)(F)F)cc2C#N)c1=O`, the figure is 154 to 155 °C; as for `CN1C=Cc2ccccc2CC1=O`, 81 to 82 °C.
Under `Cn1cc(C(=O)NCc2ccc(Cl)cc2)c(=O)c2sc(CO)c(COCC[Si](C)(C)C)c21` stands 193 to 194 °C.
Compound `COC(=O)C1Oc2ccc(OC)cc2C(C)(c2ccccc2)O1` (stereo not given) had a melting point of 70 to 71 °C.
As for `OC(CCc1ccc2ccccc2c1)c1cnc2sc3c(n12)CCCCC3` (stereo not given), the melting point lay within 124 to 127 °C.
For the compound `Cc1nn(-c2ccccn2)cc1COc1ccc(COc2ncccc2C#N)cc1`, the melting point fell in the range of 108 to 109 °C.
As for `COC(=O)Cc1ccccc1N(Cc1ccc(Cl)cc1)S(C)(=O)=O`, the figure is 73 to 75 °C.
`Cc1nnc2n1-c1sc(CCc3ccc(CC(C)C)cc3)cc1C(c1ccccc1Cl)=NC2C` (stereo not given) displayed a melting point of 130 to 132 °C.
Under `Fc1ccc(Nc2ncnc3cc(-c4ccoc4)ccc23)cc1Cl` stands 249 to 250 °C; under `COc1ccccc1NC(=O)Nc1ccc(CC(=O)O)cc1`, 165 to 168 °C.
As for `CCn1c(=O)c2c(nc(/C=C/c3ccc(OC)c(OC)c3)n2C)n(CC)c1=O`, the figure is 190 to 191 °C; as for `CCN(CC)CCSC1=C(C#N)C(c2ccccc2)(c2cccnc2)C(=O)N1` (stereo not given), 133 °C.
`CCOc1ccc(C(c2ccc(C(C)(C)C)cc2)C(CC)[N+](=O)[O-])cc1` (stereo not given) gave a melting point of 95 to 97 °C.
`Fc1ccc(Nc2nc(-c3ccc(F)cc3)cs2)cc1` gave a melting point of 127 °C.
With `CSc1nsc(NC(=O)C(C)(C)C)c1C#N`, the melting point lay within 177 to 178 °C.
Under `CCOP(=O)(OCC)Oc1c(C2CCN(CCCCNC(=O)c3ccc(-c4ccc(C#N)cc4)cc3)CC2)ccc2c1CCCC2` stands 90 °C; under `Cc1cccc(Cl)c1NC(=O)N=C1NCCN1`, 169 to 171 °C.
Consider `O=C(Cl)CC1(c2ccccc2)C(=O)Oc2ccc(Cl)cc21` (stereo not given), for which the melting point is 107 °C.
Under `C=CCn1cc(C2CCN(CCOc3ccccc3C(=O)O)CC2)c2ccccc21` stands 123 to 125 °C.
Under `[N-]=[N+]=NCC(=O)Nc1ccccc1` stands 83 °C; under `COC(=O)c1cncn1C1CC2CCCCC2c2ccccc21` (stereo not given), 140 °C; under `CCCCCCCCCCCCCCCCCC(=O)Oc1cc(C=CC(=O)c2ccccc2)cc([N+](=O)[O-])c1O`, 112 to 118 °C.
As for `COC(=O)c1cncn1C1c2ccccc2C(=O)CC1(C)C` (stereo not given), the figure is 93 to 95 °C; as for `COc1ccc(-c2nc(OCC#N)c3cc(OC)ccc3c2[N+](=O)[O-])cc1`, 192 to 194 °C; as for `CCOC(=O)c1cnc(Oc2ccccc2)s1`, 67 °C.
Consider `CCOc1nc(=O)n([C@H]2CS[C@@H](CO)O2)cc1F` (relative stereo), for which the melting point lay within 162 to 164 °C.
`Nc1ccc2ccc(Oc3ccccc3Cl)nc2n1` displayed a melting point of 166 °C.
On to `CN1C(=O)CN=C(c2ccccc2F)c2c1ccc(NC(=O)Nc1ccc(Cl)cc1)c2Cl`, for which the melting point came out at 285 °C.
Under `CC(C)(C)OC(=O)c1ccc(NC2CCc3cc4nc(COCc5ccccc5)[nH]c(=O)c4cc32)cc1` (racemic) stands 194 to 195 °C.
The compound `CC(=O)N1CCCC(C2=C(C#N)C(c3cccc4nonc34)c3c[nH]nc3N2)C1` (stereo not given) gave a melting point of 219 °C.
As for `Cc1cc(C(=O)c2ccc(O)cc2)ccc1[N+](=O)[O-]`, the figure is 146 to 148 °C; as for `O=C(c1ccc([N+](=O)[O-])cc1)N1CCCCc2sccc21`, 141 to 142 °C; as for `Cc1ccc2c(c1)N(CC(=O)c1ccccc1C)C(=O)C(NC(=O)Nc1ccc(F)c(C(=O)O)c1)CN2C(=O)C(C)(C)C` (stereo not given), 225 to 228 °C.
`N#CC1=C(C#N)SC(c2ccccc2)CS1` (stereo not given) yielded a melting point of 122 to 124 °C.
As for `CCC(CC)n1nnc2c(Oc3c(C)cc(C)cc3C)nc(C)c(C)c21`, the figure is 127 to 129 °C; as for `COC(=O)c1cc(N)c(Oc2ccccc2)c(N2CCCC2)c1`, 154 to 156 °C.
Take `Ic1ccc(-c2cc[nH]c2)cc1`: the melting point was in the range of 164 to 165 °C.
As for `COC(=O)c1cscc1O`, the melting point lay within 40 to 43 °C.
As for `O=C(Nc1cc(OCCCON=Cc2ccc(-c3ccccc3)cc2)ccc1C(=O)O)c1ccc(OC(F)(F)F)cc1`, the figure is 188 °C.
